# Test results reported in the supplement of paper PMC10307832.
# How the values were obtained:
# Assay in all cases: relative viability (nuclei count vs DMSO), 5 days (fraction); higher = more cells survive
# Cediranib + Decitabine = compound: COc1cc2c(Oc3ccc4[nH]c(C)cc4c3F)ncnc2cc1OCCCN1CCCC1 [Cediranib] + Nc1ncn([C@H]2C[C@H](O)[C@@H](CO)O2)c(=O)n1 [Decitabine] (partner 2 µM)
# In short: (§1)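 Relative viability was taken as the ratio of nuclei in treated wells to nuclei in vehicle wells. Lung cancer cell lines in 1536-well plates received compounds by pin tool one day after seeding, either one drug alone or a fixed anchor-drug dose plus five library-drug doses (not always all listed) in √10 steps. Nuclei were counted on 4× images after 5 days of treatment, and values are medians of duplicate plates.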
# Decitabine + Linsitinib = compound: Nc1ncn([C@H]2C[C@H](O)[C@@H](CO)O2)c(=O)n1 [Decitabine] + C[C@]1(O)C[C@@H](c2nc(-c3ccc4ccc(-c5ccccc5)nc4c3)c3c(N)nccn32)C1 [Linsitinib] (partner 1 µM)
# In short: as §1
# Cediranib + Pictilisib = compound: COc1cc2c(Oc3ccc4[nH]c(C)cc4c3F)ncnc2cc1OCCCN1CCCC1 [Cediranib] + CS(=O)(=O)N1CCN(Cc2cc3nc(-c4cccc5[nH]ncc45)nc(N4CCOCC4)c3s2)CC1 [Pictilisib] (partner 1 µM)
# In short: as §1
# Cediranib + Dasatinib = compound: COc1cc2c(Oc3ccc4[nH]c(C)cc4c3F)ncnc2cc1OCCCN1CCCC1 [Cediranib] + Cc1nc(Nc2ncc(C(=O)Nc3c(C)cccc3Cl)s2)cc(N2CCN(CCO)CC2)n1 [Dasatinib] (partner 0.075 µM)
# In short: as §1
cell line,measurement,setting,value
UMC-11,relative viability,Cediranib + Decitabine; first compound 0.04 µM,0.617
same,relative viability,Cediranib + Decitabine; first compound 0.1265 µM,0.528
same,relative viability,Cediranib + Decitabine; first compound 0.4 µM,0.557
same,relative viability,Cediranib + Decitabine; first compound 1.265 µM,0.555
same,relative viability,Cediranib + Decitabine; first compound 4 µM,0.633
same,relative viability,Decitabine + Linsitinib; first compound 0.04 µM,0.976
same,relative viability,Decitabine + Linsitinib; first compound 0.1265 µM,0.802
same,relative viability,Decitabine + Linsitinib; first compound 0.4 µM,0.448
same,relative viability,Decitabine + Linsitinib; first compound 1.265 µM,0.38
same,relative viability,Decitabine + Linsitinib; first compound 4 µM,0.335
same,relative viability,Cediranib + Pictilisib; first compound 0.04 µM,1.01
same,relative viability,Cediranib + Pictilisib; first compound 0.1265 µM,0.316
same,relative viability,Cediranib + Pictilisib; first compound 0.4 µM,0.707
same,relative viability,Cediranib + Pictilisib; first compound 1.265 µM,0.466
same,relative viability,Cediranib + Pictilisib; first compound 4 µM,0.862
same,relative viability,Cediranib + Dasatinib; first compound 0.04 µM,0.5
same,relative viability,Cediranib + Dasatinib; first compound 0.4 µM,0.426
same,relative viability,Cediranib + Dasatinib; first compound 4 µM,0.539
